Experimental findings from patent US20220340566A1, “BENZYL AMINE-CONTAINING 5,6-HETEROAROMATIC COMPOUNDS USEFUL AGAINST MYCOBACTERIAL INFECTION” (priority 2019, published 2022) are described below.

The nature of data set [1]: Metabolic stability test in pooled human liver microsomes. In kind it is in vitro ADME. The settings on record: human liver microsomes 0.5 mg protein/mL, 1 mmol/L NADPH, 37° C., 30 minutes. In outline:
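Remaining-rate readout: parent compound left after 30 min versus 0 min (set as 100%), measured by LC/MS/MS or SPE/MS. Oxidative reaction ran at 37° C. with 1 mmol/L NADPH, 0.5 mg protein/mL pooled human microsomes, 50 mmol/L Tris-HCl pH 7.4 buffer.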

Data set [2] concerns Mycobacterium avium ATCC700898. In words: Determination of IC85 against M. avium (resazurin fluorescence). The settings on record: Mycobacterium avium, ATCC700898, M. avium ATCC700898, CAMHB medium, 37° C., 3 days incubation then resazurin, fluorescence one day later; read-out: IC85. In kind it is cell-based. (In general: Resazurin is reduced to fluorescent resorufin, in cell work by metabolically active cells.)

Consider `Cc1ccn2c(C(=O)NCc3ccc(N4CCN(c5ccc(OC(F)(F)F)cc5)CC4)c(F)c3)c(C)nc2c1` [Compound I-2-12], for which the “MS_h_% (remaining amount of compound after reaction, 0 minute = 100%)” value in data set [1] is listed as 71.4%. In addition, the IC85 in data set [2] amounted to 23 nM.
As to `Cc1ccn2c(C(=O)NCc3ccc(N4CCN(c5ccc(C(F)(F)F)cn5)CC4)c(C(F)(F)F)c3)c(C)nc2c1` [Compound I-2-13], the “MS_h_% (remaining amount of compound after reaction, 0 minute = 100%)” value in data set [1] was determined as 67.6%. Besides, the IC85 in data set [2] worked out at 350 nM.
On to `Cc1nc2ccc(Br)cn2c1C(=O)NCc1ccc(N2CCN(c3ccc(OC(F)(F)F)cc3)[C@@H](C)C2)c(F)c1` [Compound I-2-14], for which the “MS_h_% (remaining amount of compound after reaction, 0 minute = 100%)” value in data set [1] turned out to be 67%. In addition, the IC85 in data set [2] is 4.5 nM.
In the same order, the values of `Cc1ccn2c(C(=O)NCc3ccc(N4CCN(c5ccc(OC(F)(F)F)cc5)[C@@H](C)C4)c(C(F)(F)F)c3)c(C)nc2c1` [Compound I-2-15] are 59.2% and 250 nM.
Turning to `CCc1nc2ccc(Cl)cn2c1C(=O)NCc1ccc(N2CCN(c3ccc(OC(F)(F)F)cc3)C3(CCCC3)C2)c(F)c1` [Compound I-2-16], in data set [1], the “MS_h_% (remaining amount of compound after reaction, 0 minute = 100%)” value is 58.2%. In addition, the IC85 in data set [2] turned out to be 86 nM.
In the same order, the values of `CCc1nc2cc(F)ccn2c1C(=O)NCc1ccc(O[C@H]2C[C@H](Oc3ccc(OC(F)(F)F)cc3)C2)c(F)c1.Cl` [Compound I-3-1] are 99.1% and 54 nM.
Turning to `CCc1nc2ccc(Cl)cn2c1C(=O)NCc1ccc(-c2cccc(OC(F)(F)F)c2)c(F)c1` [Compound I-3-2], in data set [1], the “MS_h_% (remaining amount of compound after reaction, 0 minute = 100%)” value was found to be 97.7%. Moreover, the IC85 in data set [2] was found to be 2.3 nM.
Regarding `CCc1nc2ccc(Cl)cn2c1C(=O)NCc1ccc(-c2ccc(OC(C)C)cc2)c(F)c1` [Compound I-3-3], the “MS_h_% (remaining amount of compound after reaction, 0 minute = 100%)” value in data set [1] is listed as 96.1%. The IC85 in data set [2] worked out at 9.4 nM.
As to `Cc1ccn2c(C(=O)NCc3ccc(-c4ccc(OCC(F)(F)F)cc4)c(F)c3)c(C)nc2c1` [Compound I-3-4], in data set [1], the “MS_h_% (remaining amount of compound after reaction, 0 minute = 100%)” value turned out to be 94.6%. In data set [2], the IC85 came out at 43 nM.
As to `[2H]c1c(C([2H])([2H])[2H])c([2H])c2nc(C)c(C(=O)NCc3ccc(C4CCN(c5ccc(OC(F)(F)F)cc5)CC4)c(F)c3)n2c1[2H]` [Compound I-3-5], the “MS_h_% (remaining amount of compound after reaction, 0 minute = 100%)” value in data set [1] amounted to 93.7%. Moreover, the IC85 in data set [2] was 21 nM.
In the same order, the values of `Cc1cn2c(C(=O)NCc3ccc(N4CCC(c5ccc(OC(F)(F)F)cc5)CC4)c(F)c3)c(C)nc2s1.Cl` [Compound I-3-6] are 91.7% and 260 nM.
On the same counts, the results for `CCc1nc2ccc(Cl)cn2c1C(=O)NCc1ccc(-c2ccc(OC(F)(F)F)cc2)c(F)c1` [Compound I-3-7] are 89.5% and 56 nM.
On the same counts, the results for `COc1ccn2nc(C)c(C(=O)NCc3ccc(N4CCC(c5ccc(OC(F)(F)F)cc5)CC4)cc3)c2c1` [Compound I-3-8] are 87.1% and 28 nM.
For the compound `Cc1ccn2c(C(=O)NCc3ccc(-c4ccc(OC(C)C)cc4)c(F)c3)c(C)nc2c1` [Compound I-3-9], the “MS_h_% (remaining amount of compound after reaction, 0 minute = 100%)” value in data set [1] was determined as 85.9%. In data set [2], the IC85 stood at 130 nM.
On the same counts, the results for `Cc1cn2c(C(=O)NCc3ccc(N4CCC5(CCN(c6ccc(C(F)(F)F)cc6)CC5)CC4)c(F)c3)c(C)nc2s1` [Compound I-3-10] are 84.9% and 29 nM.
For `[2H]c1c(C([2H])([2H])[2H])c([2H])n2c(C(=O)NCc3ccc(-c4ccc(C(F)(F)F)cc4)cc3)c(C)nc2c1[2H]` [Compound I-3-11], in data set [1], the “MS_h_% (remaining amount of compound after reaction, 0 minute = 100%)” value is listed as 84.7%. Further, the IC85 in data set [2] is 2.8 nM.
On the same counts, the results for `Cc1cn2c(C(=O)NCc3ccc(N4CC=C(c5ccc(OC(F)(F)F)cc5)CC4)c(F)c3)c(C)nc2s1.Cl` [Compound I-3-12] are 84.4% and 340 nM.
On to `Cc1cn2c(C(=O)NCc3ccc(N4CCC(c5ccc(OC(F)(F)F)cc5)CC4)c(Cl)c3)c(C)nc2s1.Cl` [Compound I-3-13], for which the “MS_h_% (remaining amount of compound after reaction, 0 minute = 100%)” value in data set [1] is 84%. For the same compound, the IC85 in data set [2] stood at 350 nM.
In the same order, the values of `Cc1cn2c(C(=O)NCc3ccc(N4CCN(c5ccc(OC(F)(F)F)cc5)C(C)(C)C4)c(F)c3)c(C)nc2s1` [Compound I-3-14] are 82.7% and 190 nM.
In the same order, the values of `[2H]c1c(C([2H])([2H])[2H])c([2H])n2c(C(=O)NCc3ccc(Oc4cccc(C(F)(F)F)c4)cc3)c(C)nc2c1[2H]` [Compound I-3-15] are 82.4% and 230 nM.
For the compound `Cc1cn2c(C(=O)NCc3cc(F)c(N4CCC(c5ccc(OC(F)(F)F)cc5)CC4)c(F)c3)c(C)nc2s1.Cl` [Compound I-3-16], the “MS_h_% (remaining amount of compound after reaction, 0 minute = 100%)” value in data set [1] is recorded as 81.4%. For the same compound, the IC85 in data set [2] came out at 110 nM.
Consider `Cc1ccn2c(C(=O)NCc3ccc4oc(-c5ccc(OC(F)(F)F)cc5)nc4c3)c(C)nc2c1.Cl` [Compound I-3-17], for which, in data set [1], the “MS_h_% (remaining amount of compound after reaction, 0 minute = 100%)” value was 81.1%. In addition, the IC85 in data set [2] amounted to 860 nM.
`CCc1nc2ccc(Cl)cn2c1C(=O)NCc1ccc(-c2ccc(OC(F)(F)F)cc2)nc1` [Compound I-3-18]: the “MS_h_% (remaining amount of compound after reaction, 0 minute = 100%)” value in data set [1] is 80.9%. Further, in data set [2], the IC85 is 190 nM.
For `Cc1ccn2c(C(=O)NCc3ccc(Oc4ccc(C(F)(F)F)cc4)cc3)c(C)nc2c1` [Compound I-3-19], the “MS_h_% (remaining amount of compound after reaction, 0 minute = 100%)” value in data set [1] came out at 80.9%. Also, the IC85 in data set [2] is 440 nM.
On the same counts, the results for `CCc1nc2ccc(Cl)cn2c1C(=O)NCc1ccc(OC2CCC(Oc3ccc(OC(F)(F)F)cc3)CC2)c(F)c1.Cl` (stereo not shown) [Compound I-3-20] are 80.8% and 18 nM.
In the same order, the values of `Cc1ccc2nc(C)c(C(=O)NCc3ccc(Oc4cccc(C(F)(F)F)c4)cc3)n2c1` [Compound I-3-21] are 79.1% and 130 nM.
In the case of `Cc1cn2c(C(=O)NCc3ccc(-c4ccc(OC(C)C)cc4)c(F)c3)c(C)nc2s1` [Compound I-3-22], in data set [1], the “MS_h_% (remaining amount of compound after reaction, 0 minute = 100%)” value came out at 78.5%. The IC85 in data set [2] was 370 nM.
In the same order, the values of `Cc1nc2ccc(F)cn2c1C(=O)NCc1ccc(N2CCN(c3ccc(OC(F)(F)F)cc3)[C@@H](C)C2)cc1` [Compound I-3-23] are 77.8% and 15 nM.
On the same counts, the results for `Cc1nc2ccc(Cl)cn2c1C(=O)NCc1cc(F)c2c(c1)CCN(C1CC=C(OC(F)(F)F)CC1)C2.Cl` (stereo not shown) [Compound I-3-24] are 77.5% and 130 nM.
On the same counts, the results for `CCc1nc2ccc(Cl)cn2c1C(=O)NCc1ccc(-n2ccc(C(F)(F)F)n2)cc1` [Compound I-3-25] are 77% and 140 nM.
Regarding `Cc1ccn2c(C(=O)NCc3ccc(N4CCN(C5CN(CC(F)(F)F)C5)[C@@H](C)C4)c(F)c3)c(C)nc2c1` [Compound I-3-26], the “MS_h_% (remaining amount of compound after reaction, 0 minute = 100%)” value in data set [1] turned out to be 77%. Besides, the IC85 in data set [2] turned out to be 960 nM.
In the same order, the values of `Cc1nc2ccc(Cl)cn2c1C(=O)NCc1ccc(N2CCC(c3ccc(OC(F)(F)F)cc3)CC2)cc1` [Compound I-3-27] are 75.5% and 12 nM.
On the same counts, the results for `Cc1ccn2c(C(=O)NCc3ccc(N4CCN(c5ccc(OC(F)(F)F)cc5)[C@@H](C)C4)cc3)c(C)nc2c1` [Compound I-3-28] are 75.4% and 36 nM.
In the case of `Cc1cn2c(C(=O)NCc3ccc(N4CCN(c5ccc(OC(F)(F)F)cc5)[C@@H](C)C4)c(Cl)c3)c(C)nc2s1.Cl` [Compound I-3-29], the “MS_h_% (remaining amount of compound after reaction, 0 minute = 100%)” value in data set [1] turned out to be 75.1%. In addition, the IC85 in data set [2] was 61 nM.
Take `Cc1cn2c(C(=O)NCc3ccc(-c4ccc(OCC(F)(F)F)cc4)c(F)c3)c(C)nc2s1` [Compound I-3-30]: the “MS_h_% (remaining amount of compound after reaction, 0 minute = 100%)” value in data set [1] was determined as 75.1%. The IC85 in data set [2] is 31 nM.
For the compound `Cc1cn2c(C(=O)NCc3ccc(C4CCN(c5ccc(OC(F)(F)F)cc5)CC4)c(F)c3)c(C)nc2s1` [Compound I-3-31], the “MS_h_% (remaining amount of compound after reaction, 0 minute = 100%)” value in data set [1] is on record as 73.9%. Besides, in data set [2], the IC85 was found to be 330 nM.
On the same counts, the results for `Cc1cn2c(C(=O)NCc3ccc(N4CCN(c5ccc(OC(F)(F)F)cc5)[C@@H](C)C4)c(F)c3)c(C)nc2s1` [Compound I-3-32] are 72.6% and 820 nM.
With `Cc1ccc2nc(C)c(C(=O)NCc3ccc(-c4ccc(C(F)(F)F)cc4)cc3)n2c1` [Compound I-3-33], the “MS_h_% (remaining amount of compound after reaction, 0 minute = 100%)” value in data set [1] came out at 72.6%. The IC85 in data set [2] amounted to 2.2 nM.
`Cc1ccn2c(C(=O)NCc3ccc(C4CCN(C5CN(CC(F)(F)F)C5)CC4)c(F)c3)c(C)nc2c1` [Compound I-3-34]: in data set [1], the “MS_h_% (remaining amount of compound after reaction, 0 minute = 100%)” value was found to be 71.9%. The IC85 in data set [2] worked out at 610 nM.
Regarding `[2H]c1c(C([2H])([2H])[2H])c([2H])n2c(C(=O)NCc3ccc(S(F)(F)(F)(F)F)cc3)c(C)nc2c1[2H]` [Compound I-3-35], the “MS_h_% (remaining amount of compound after reaction, 0 minute = 100%)” value in data set [1] is on record as 71.3%. Also, the IC85 in data set [2] came out at 110 nM.
Regarding `CCc1nc2cc(F)ccn2c1C(=O)NCc1ccc(-n2cc3c(n2)CN(c2ccc(OC(F)(F)F)cc2)C3)c(F)c1.Cl` [Compound I-3-36], the “MS_h_% (remaining amount of compound after reaction, 0 minute = 100%)” value in data set [1] was determined as 69%. Besides, the IC85 in data set [2] was 200 nM.
